Data taken from BigSolDB 2.1.

Conditions: in water

| solubility (mole fraction) (293.15 K) | solubility (mole fraction) (298.15 K) | solubility (mole fraction) (303.15 K) | solubility (mole fraction) (308.15 K) | solubility (mole fraction) (313.15 K) | solubility (mole fraction) (318.15 K) | Structure (SMILES) |
| --- | --- | --- | --- | --- | --- | --- |
| 0.00117 | 0.00122 | 0.00128 | 0.00131 | 0.00138 | 0.00143 | O=C(O)c1cc(O)c(O)c(O)c1 |
| 0.000376 | 0.000522 | 0.000646 | 0.000794 | 0.000915 | 0.00105 | COc1cc(C(=O)O)cc(OC)c1O |
| 0.000989 | 0.00117 | 0.00151 | 0.00182 | 0.0021 | 0.00239 | COc1cc(C=O)ccc1O |
| 0.00212 | 0.00223 | 0.00229 | 0.00238 | 0.00244 | 0.00256 | O=C(O)c1ccc(O)c(O)c1 |
